Results published in patent US12441757B2, “Platform for screening NAD+ binding proteins in a cellular context” (OREGON HEALTH & SCIENCE UNIVERSITY, priority 2020, dated 2025).

What was measured:
[1] = system: inosine monophosphate dehydrogenase; conditions: cited from earlier work
[2] = target: T1, PARP-1 (Homo sapiens, UniProt P09874); experiment: Competition labeling of PARP-1 by 2-ad-BAD; format: binding
T1 construct: Full length His6-PARP-1 and His6-SUMO-PARP-10 proteins we expressed and purified; His6 (N); made in house
From the text: (§1) FIG. 8. Densitometry analyses of FIG. 3A panels (A,B) comparing the inhibitory effect of nucleotides and (B) panels (C,D) comparing inhibitory effect of PARP inhibitors on PARP-1 and PARP-10 labelling by 2-ad-BAD. TAMRA in-gel fluorescence was normalized to Coomassie staining, except for PARP-1 NAD^+ treated samples where relative to control TAMRA signal is reported due to auto-PARylation induced molecular weight shift and therefore not detectable Coomassie signal at PARP-1 molecular weight of ˜110 kDa. Data are mean±SEM of 3 independent experiments.
(§2) Treatments. Recombinant PARP-1 (250 nM), PARP-10 (250 nM) or AK1 (500 nM; Novus Biologicals) were diluted in 100 mM NaCl, 50 mM HEPES [pH 7.4], 4 mM MgCl2, 0.2 mM TCEP. PARP-1 reactions also contained 10 μg/mL of activated calf thymus DNA (Sigma-Aldrich D4522), unless otherwise noted. In experiments reported in FIG. 2, the samples were treated with 0.1 μM 2-ad-BAD or ad-olaparib for 10 min. In competition experiments reported in FIG. 3 and Figure S3, samples were first treated with 150 μM of indicated nucleotides for 10 minute and then with 0.3 μM 2-ad-BAD for additional 10 min. All treatments occurred at RT. Samples were then kept in the dark or irradiated for 5 min in the RPR-100 Photochemical Reactor (Rayonet) equipped with 350 nm lamps at 4° C.
(§3) Click Chemistry. 25 μL of each sample was mixed with 5 μL of fatty acid free BSA and SDS to give a final Click reaction concentration of 1 mg/mL and 1%, respectively. Click reactions were started by adding 15 μL of PBS based 3× click reaction mix (final 1× concentrations shown): 100 μM Tris[(1-benzyl-1H-1,2,3triazol-4-yl)methyl]amine (TBTA, Click Chemistry Tools), 1 mM CuSO4, 40 μM tetramethylrhodamine (TAMRA)-azide (Click Chemistry Tools), 1 mM Tris(2-carboxyethyl)phosphine hydrochloride (TCEP, Thermo Fisher) and 5% tert-Butyl alcohol to each sample, and let to proceed for 1 h at RT while gently shaking. Reactions were stopped by adding 4× Laemmli sample buffer and boiling at 95° C. for 5 min.
(§4) In gel fluorescence and staining. Samples were loaded to 10 or 12% SDS-polyacrylamide gels and run until the dye front left the gel. In-gel fluorescence was detected with ChemiDoc XRS+ (Biorad) using Rhodamine filter and then the gels were stained with Coomassie blue or Silver using standard protocols.

[3] = target: T2, PARP-10 (Homo sapiens, UniProt Q53GL7); experiment: Competition labeling of PARP-10 by 2-ad-BAD; format: binding
T2 construct: Full length His6-PARP-1 and His6-SUMO-PARP-10 proteins we expressed and purified; His6 (N); SUMO (N); made in house
T2 sequence (Q53GL7 1-1025): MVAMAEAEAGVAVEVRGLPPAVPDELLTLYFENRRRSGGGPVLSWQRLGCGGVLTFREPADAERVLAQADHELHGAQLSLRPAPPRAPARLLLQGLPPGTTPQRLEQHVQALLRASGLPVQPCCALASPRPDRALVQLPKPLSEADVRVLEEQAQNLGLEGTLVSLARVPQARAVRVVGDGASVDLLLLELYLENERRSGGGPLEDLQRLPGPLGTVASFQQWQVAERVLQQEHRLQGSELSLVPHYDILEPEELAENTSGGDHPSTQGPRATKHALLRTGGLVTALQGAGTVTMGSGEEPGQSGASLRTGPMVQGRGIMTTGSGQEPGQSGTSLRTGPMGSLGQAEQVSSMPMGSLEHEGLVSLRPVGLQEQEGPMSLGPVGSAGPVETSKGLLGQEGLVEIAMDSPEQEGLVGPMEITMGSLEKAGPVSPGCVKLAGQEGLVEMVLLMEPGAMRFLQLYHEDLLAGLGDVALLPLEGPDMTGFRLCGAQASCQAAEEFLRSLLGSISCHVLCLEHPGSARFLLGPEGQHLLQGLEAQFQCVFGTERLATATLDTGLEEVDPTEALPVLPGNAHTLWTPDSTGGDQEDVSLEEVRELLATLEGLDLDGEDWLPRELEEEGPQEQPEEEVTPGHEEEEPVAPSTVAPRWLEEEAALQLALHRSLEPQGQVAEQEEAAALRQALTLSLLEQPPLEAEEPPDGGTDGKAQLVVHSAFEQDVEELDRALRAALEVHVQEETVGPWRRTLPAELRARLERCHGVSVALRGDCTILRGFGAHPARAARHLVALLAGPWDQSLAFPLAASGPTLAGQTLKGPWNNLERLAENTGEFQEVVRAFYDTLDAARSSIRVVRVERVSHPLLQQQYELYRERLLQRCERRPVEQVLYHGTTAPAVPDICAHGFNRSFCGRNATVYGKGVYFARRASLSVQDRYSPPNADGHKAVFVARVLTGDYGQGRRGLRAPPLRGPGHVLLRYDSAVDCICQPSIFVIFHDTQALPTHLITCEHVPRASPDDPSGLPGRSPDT
From the text: as §1, §2, §3, §4

[4] = target: T3, Adenylate kinase 1 (AK1) (Homo sapiens, UniProt P00568); experiment: Labeling of recombinant AK1 by 2-ad-BAD and nucleotide competition; format: binding; conditions: 150 μM competitor, 0.3 μM 2-ad-BAD
T3 construct: purchased Novus Biologicals NBP1-50855
T3 sequence (P00568 1-194): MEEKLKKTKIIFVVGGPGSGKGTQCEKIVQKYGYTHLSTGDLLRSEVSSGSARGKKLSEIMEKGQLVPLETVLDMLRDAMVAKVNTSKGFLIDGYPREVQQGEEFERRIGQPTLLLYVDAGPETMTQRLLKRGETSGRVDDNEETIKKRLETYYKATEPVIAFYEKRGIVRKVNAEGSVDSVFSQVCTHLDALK
Procedure: FIG. 10. Validation of Adenylate kinase 1 (AK1) as a putative NAD^+/NADH binding protein. […] Recombinant AK1 (500 nM) in 100 mM NaCl, 50 mM HEPES [pH 7.4], 4 mM MgCl2, 0.2 mM TCEP was incubated with 150 μM of indicated competitor molecule for 10 min, followed by 10 min treatment with 0.3 μM 2-ad-BAD. Samples were then subjected to UV light for 5 min, conjugated to TAMRA using Click chemistry, separated by SDS-PAGE and in-gel fluorescence was recorded. […] (FIG. 10B) A differential scanning fluorimetry assay is supportive of NADH as novel AK1 ligand. Recombinant AK1 (0.1 mg/mL) in 100 mM NaCl, 50 mM HEPES, pH 7.4, 4 mM MgCl2, 7.5× SYPRO Orange was tested for thermal stability in the absence or presence of indicated nucleotides at 1 mM. Ordinate reports on the difference of melt peak temperature prompted by indicated treatments. Data are mean±SEM of 3 independent experiments.
as §2, §3, §4

[5] = 150 μM nucleotide, 0.3 μM 2-ad-BAD

T1 sequence (P09874 whole entry): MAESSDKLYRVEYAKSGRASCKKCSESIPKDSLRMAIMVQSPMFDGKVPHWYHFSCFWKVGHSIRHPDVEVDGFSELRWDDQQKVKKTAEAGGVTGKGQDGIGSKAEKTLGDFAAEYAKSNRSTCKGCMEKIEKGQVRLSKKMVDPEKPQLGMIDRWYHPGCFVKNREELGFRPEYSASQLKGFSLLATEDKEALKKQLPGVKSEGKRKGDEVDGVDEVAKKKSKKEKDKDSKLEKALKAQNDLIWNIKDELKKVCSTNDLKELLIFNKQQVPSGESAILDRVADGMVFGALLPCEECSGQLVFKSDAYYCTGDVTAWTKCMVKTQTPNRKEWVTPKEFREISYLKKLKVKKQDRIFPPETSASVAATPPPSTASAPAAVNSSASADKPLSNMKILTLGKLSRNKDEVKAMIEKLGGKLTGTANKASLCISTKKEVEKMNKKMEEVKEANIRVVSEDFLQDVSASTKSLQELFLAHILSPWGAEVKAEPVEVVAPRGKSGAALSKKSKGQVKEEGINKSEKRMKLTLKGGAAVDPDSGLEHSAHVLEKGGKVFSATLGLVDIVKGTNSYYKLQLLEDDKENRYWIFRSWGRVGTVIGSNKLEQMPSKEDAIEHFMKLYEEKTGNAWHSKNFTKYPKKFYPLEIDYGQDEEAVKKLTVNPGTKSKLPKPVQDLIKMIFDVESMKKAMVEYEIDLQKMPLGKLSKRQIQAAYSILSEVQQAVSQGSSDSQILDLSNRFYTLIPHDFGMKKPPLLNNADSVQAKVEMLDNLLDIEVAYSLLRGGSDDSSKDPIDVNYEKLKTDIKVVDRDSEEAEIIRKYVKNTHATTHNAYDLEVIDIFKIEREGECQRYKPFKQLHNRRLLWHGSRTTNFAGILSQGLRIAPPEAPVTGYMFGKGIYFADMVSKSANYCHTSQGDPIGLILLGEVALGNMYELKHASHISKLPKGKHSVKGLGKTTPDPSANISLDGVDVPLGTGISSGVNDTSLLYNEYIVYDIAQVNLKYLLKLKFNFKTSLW

block of 2-ad-BAD labeling of PARP-1 by nucleotides [2, 5]: reduced | block of 2-ad-BAD labeling of PARP-10 by nucleotides [3, 5]: reduced | competition of 2-ad-BAD labeling of recombinant AK1 [4]: effectively competed
SMILES: NC(=O)c1cccc([C@@H]2O[C@H](COP(=O)(O)OP(=O)(O)OC[C@H]3O[C@@H](n4cnc5c(N)ncnc54)[C@H](O)[C@@H]3O)[C@@H](O)[C@H]2O)c1 [BAD, benzamide adenine dinucleotide]
binding to and inhibition of NAD^+/NADH binding enzymes (e.g., inosine monophosphate dehydrogenase) [1]: binds to and inhibits | dose-dependent block of 2-ad-BAD labeling of PARP-1 ([2]; competitor dose series): dose-dependently block the labeling of PARP-1 | dose-dependent block of 2-ad-BAD labeling of PARP-10 ([3]; competitor dose series): dose-dependently block the labeling of PARP-10
